The source of these data is publication PMC8426299, “Effect of severe renal impairment on the pharmacokinetics of brigatinib” (Investigational New Drugs, 2021).

For data set [1] the following is noted: cited from earlier work.
Data set [2] deals with 2C8. More on the design: method as in ref 5, 11 = [5]; 5. Alunbrig brigatinib [summary of product characteristics] (2020) Takeda Pharmaceutical Company Limited. https://www.alunbrig.com/assets/pi.pdf . Accessed 9 Mar 2021 || [11]; PMID 31287236; doi:10.1002/cpdd.723; 11. Tugnait M Gupta N Hanley MJ Sonnichsen D Kerstein D Dorer DJ Venkatakrishnan K Narasimhan N Effects of strong CYP2C8 or CYP3A inhibition and CYP3A induction on the pharmacokinetics of brigatinib. The note with it: in vitro; cited from earlier work.

The nature of data set [3]: Safety assessment (adverse events, laboratory, ECG, vital signs) in the single-dose study. The class given is in vivo, human. To be noted: single 90 mg dose. The procedure: Adverse events were recorded throughout the study. Physical examinations were performed at screening and on days − 1 and 8; height, weight, and BMI were collected only at screening. Vital signs were recorded at screening; on day − 1; at 0.5, 1, 2, 3, 4, 6, 8, 12, 24, 36, 48, 60, 72, 96, 120, and 144 h after brigatinib administration; and on day 8. Electrocardiograms were conducted at screening, day − 1, before the brigatinib dose, 3 and 48 h after brigatinib, and on day 8. Clinical laboratory evaluations were performed at screening and on days − 1 and 8.
Descriptive statistics, including number of observations (n), arithmetic mean, standard deviation (SD), coefficient of variation (CV%), median, minimum, and maximum, were calculated for each time point for brigatinib plasma concentrations in each study group. Arithmetic mean; SD; CV%; median, minimum, and maximum values; and geometric mean and geometric CV% were calculated for all PK parameters except Tmax, which was reported as median (minimum, maximum). Statistical comparisons of brigatinib PK parameters (unbound) were made using a one-factor analysis of variance, and 90 % CIs for the geometric mean ratios (GMRs) were calculated for the comparison of Cmax, AUC0 − last, and AUC0−∞ between study groups. Descriptive statistics were used to present safety outcomes, including number and percentage of participants with adverse events.

On the set-up of data set [4]: method as in PMID 32816246. To be noted: eGFR 30 to < 90 mL/min/1.73 m^2; population PK analyses; cited from earlier work.
Data set [5] relates to ALK-positive non–small cell lung cancer (NSCLC). More on the design: method as in PMID 31756496. The note with it: cited from earlier work.
The subject of data set [6] is cytochrome P450 (CYP) 3A4. More on the design: method as in ref 5, 11 = [5]; 5. Alunbrig brigatinib [summary of product characteristics] (2020) Takeda Pharmaceutical Company Limited. https://www.alunbrig.com/assets/pi.pdf . Accessed 9 Mar 2021 || [11]; PMID 31287236; doi:10.1002/cpdd.723; 11. Tugnait M Gupta N Hanley MJ Sonnichsen D Kerstein D Dorer DJ Venkatakrishnan K Narasimhan N Effects of strong CYP2C8 or CYP3A inhibition and CYP3A induction on the pharmacokinetics of brigatinib. The note with it: in vitro; cited from earlier work.

Data set [7] concerns plasma protein. In words: Plasma protein binding of brigatinib by rapid equilibrium dialysis (RED) of participants' plasma samples. It counts as in vitro ADME, human. How it is done: (§1) Blood samples were collected at 2, 8, and 24 h after brigatinib administration to determine the plasma protein binding of brigatinib.
(§2) Free brigatinib in plasma samples was separated from protein-bound brigatinib by dialyzing the samples across a semipermeable dialysis membrane (8000-Da mass cutoff) using Thermo Scientific™ Single-Use RED (rapid equilibrium dialysis) Plates. For each RED dialysis unit, an aliquot (200 µL) of plasma was transferred into the donor chamber and an aliquot (350 µL) of warm (37 °C) phosphate buffered saline (PBS) was transferred into the receiver chamber of the dialysis unit. The RED devices were incubated at 37 °C with gentle shaking (250 rpm on a rotator shaker) for six hours. A 125-µL aliquot of plasma and 150-µL aliquot of PBS were removed from the dialysis unit and matrix-matched to a final composition of 50:50 (v:v) plasma:PBS, in Rain-X® treated 96-well plates. The matrix-matched samples were immediately frozen at − 80 °C. The protein binding assay and sample analysis were conducted at Charles River Laboratories, Inc. (Worcester, MA, USA). Samples were analyzed for brigatinib concentrations using liquid chromatography with tandem mass spectrometry (LC-MS/MS) methods that have been previously reported using a dual-range assay with a lower limit of quantitation of 0.100 ng/mL and an upper limit of quantitation of 500 ng/mL.
(§3) Individual participant plasma concentration-time profiles were analyzed via noncompartmental analysis methods using Phoenix WinNonlin (version 6.4) to estimate PK parameters. Plasma PK parameters calculated for brigatinib included maximum observed plasma concentration (Cmax); Tmax; area under the plasma concentration-time curve from time zero to the time of the last measurable concentration (AUC0 − last); AUC from time zero to infinity (AUC0−∞); terminal elimination half-life (t1/2); apparent oral clearance (CL/F); and apparent volume of distribution (V/F). The fraction of unbound brigatinib in plasma was determined using the following formula: % free (unbound) = [free brigatinib concentration measured in buffer after RED]/[total concentration measured in plasma] X 100. Unbound brigatinib plasma PK parameters (except unbound CL/F and V/F, which were calculated as total CL/F or total V/F divided by the overall mean fraction unbound) were calculated using the following formula: unbound PK parameter = (parameter based on total concentrations) x (individual participant’s overall mean fraction unbound value). Urinary PK parameters included the amount of brigatinib excreted from time zero to time t (Ae0 − t,), fraction of the dose excreted (%) from time zero to time t (Fe0 − t), and renal clearance (CLR).

Experiment in data set [8]: as above
The class given is in vitro ADME, human. To be noted: human, plasma samples of dosed participants, averaged over 2, 8, 24 h postdose, read-out: overall mean (SD) fraction unbound (converted). The procedure: as §1, §2, §3

[9] abbreviates: NSCLC progressed on crizotinib, 180 mg qd with seven-day lead-in at 90 mg, median follow-up 24 months.
The mark [10] stands for this setting: patients with baseline brain metastases.

The structures appear in SMILES notation. Entries after “also recorded” stand apart in the source; their conditions may differ. Like-named read-outs stand apart in the source and are kept apart here.

As to `COc1cc(N2CCC(N3CCN(C)CC3)CC2)ccc1Nc1ncc(Cl)c(Nc2ccccc2P(C)(C)=O)n1` [brigatinib], in data set [1], the “dose proportionality / linearity of systemic exposure” value was “dose proportional over the dose range of 60 mg to 240 mg qd; also recorded: dose-linear and time-independent PK”; the “geometric mean accumulation ratio after repeat dosing” value was 1.9 to 2.4; the “oral dose excreted unchanged in the urine” value was “approximately 25%”. In addition, in data set [1] (postdose), the “median time to reach maximum plasma concentration (Tmax)” value is recorded as 1 to 3 h. Further, in data set [2], the “contribution of 2C8 to metabolism” value was “minor contribution”. In data set [3] (all participants), the “clinically significant laboratory values or electrocardiogram findings” value is recorded as “no participant had clinically significant laboratory values or electrocardiogram findings”. The adverse events entry in data set [3] (healthy volunteers with normal renal function (n = 8)) is reported as “No healthy volunteers with normal renal function reported adverse events”. In data set [3] (patients with severe renal impairment (n = 8)), the treatment-emergent adverse events result is given as “Two patients with severe renal impairment reported three treatment-emergent adverse events”. The “effect of mild or moderate renal impairment on brigatinib exposure / PK” value in data set [4] was “not associated with clinically meaningful effects on brigatinib PK; also recorded: not found to impact brigatinib exposure”. In addition, in data set [5] (setting [9]), the “independent review committee-assessed confirmed objective response rate (ORR)” value is on record as 56% and the “median progression-free survival (PFS)” value was 16.7 months. In addition, in data set [5] (setting [10]), the “confirmed intracranial ORR” value was 67% and the “median intracranial PFS” value was 18.4 months. Besides, in data set [6], the “contribution of CYP3A4 to metabolism” value is on record as “primarily metabolized”. In addition, the “concentration dependence of protein binding” value in data set [7] (mean fraction unbound at 2, 8, 24 h postdose, both renal function groups) was “not concentration-dependent”. The “effect of severe renal impairment on brigatinib plasma protein binding” value in data set [7] (severe renal impairment vs normal renal function) is “no effect”. In addition, the fraction unbound at 6 h in data set [8] (healthy volunteers with normal renal function) is 0.09. Further, the fraction unbound at 6 h in data set [8] (patients with severe renal impairment) is 0.08.
